Data from patent publication US8598365B2, “Herbicides” (Syngenta Limited, priority 2007, dated 2013).

Key:
Assay in all cases: Example B post-emergence herbicidal activity
Assay type in all cases: in vivo
Setaria faberi (SETFA) = conditions: 312 h, evaluated after 13 days, read-out: Post-emergence activity SETFA (100=total damage to plant; 0=no damage to plant); for pest or weed control at 250 g/ha: rate 250 g/ha
Experimental: (§1) Seeds of a variety of test species were sown in standard soil in pots. After cultivation for one day (pre-emergence) or after 8 days cultivation (post-emergence) under controlled conditions in a glasshouse (at 24/16° C., day/night; 14 hours light; 65% humidity), the plants were sprayed with an aqueous spray solution derived from the formulation of the technical active ingredient in acetone/water (50:50) solution containing 0.5% Tween 20 (polyoxyethelyene sorbitan monolaurate, CAS RN 9005-64-5).
(§2) The test plants were then grown in a glasshouse under controlled conditions in a glasshouse (at 24/16° C., day/night; 14 hours light; 65% humidity) and watered twice daily. After 13 days for pre and post-emergence, the test was evaluated (100=total damage to plant; 0=no damage to plant).
(§3) Alopecurus myosuroides (ALOMY), Avena fatua (AVEFA), Setaria faberi (SETFA), Echinochloa crus-galli (ECHCG), Solanum nigrum (SOLNI) and Amaranthus retoflexus (AMARE)

[1] = system: Echinochloa crus-galli (ECHCG); conditions: 312 h, evaluated after 13 days, read-out: Post-emergence activity ECHCG (100=total damage to plant; 0=no damage to plant); for pest or weed control at 250 g/ha: rate 250 g/ha
Experimental: as §1, §2, §3

[2] = system: Alopecurus myosuroides (ALOMY); conditions: 312 h, evaluated after 13 days, read-out: Post-emergence activity ALOMY (100=total damage to plant; 0=no damage to plant); for pest or weed control at 250 g/ha: rate 250 g/ha
Experimental: as §1, §2, §3

Avena fatua (AVEFA) = conditions: 312 h, evaluated after 13 days, read-out: Post-emergence activity AVEFA (100=total damage to plant; 0=no damage to plant); for pest or weed control at 250 g/ha: rate 250 g/ha
Experimental: as §1, §2, §3

[3] = system: Amaranthus retoflexus (AMARE); conditions: Amaranthus retroflexus, 312 h, evaluated after 13 days, read-out: Post-emergence activity AMARE (100=total damage to plant; 0=no damage to plant); for pest or weed control at 250 g/ha: rate 250 g/ha
Experimental: as §1, §2, §3

Row | SMILES | pest or weed control at 250 g/ha (Setaria faberi (SETFA)) [%] | pest or weed control at 250 g/ha [1] [%] | pest or weed control at 250 g/ha [2] [%] | pest or weed control at 250 g/ha (Avena fatua (AVEFA)) [%] | pest or weed control at 250 g/ha [3] [%] | pest or weed control at 1000 g/ha (Setaria faberi (SETFA); rate 1000 g/ha) [%] | pest or weed control at 1000 g/ha ([1]; rate 1000 g/ha) [%] | pest or weed control at 1000 g/ha ([2]; rate 1000 g/ha) [%] | pest or weed control at 1000 g/ha (Avena fatua (AVEFA); rate 1000 g/ha) [%] | pest or weed control at 1000 g/ha ([3]; rate 1000 g/ha) [%]
1 | CCc1sc(-c2ccc(Cl)cc2)[n+]([O-])c1C1C(=O)[C@@H]2CC[C@@H](C2)C1=O (stereo partly shown) [Compound T89] | 80 | 30 | 0 | 0 | 0 |  |  |  |  | 
2 | Cc1sc(CC(C)C)nc1C1C(=O)[C@@H]2CC[C@@H](C2)C1=O (stereo partly shown) [Compound T61] | 20 | 0 | 0 | 0 | 0 |  |  |  |  | 
3 | COC(=O)c1ccc(-c2cc(C3C(=O)[C@@H]4CC[C@@H](C4)C3=O)c(C)s2)cc1 (stereo partly shown) [Compound T25, 4-[4-(2,4-dioxobicyclo[3.2.1]oct-3-yl)-5-methylthiophen-2-yl]benzoic acid methyl ester] |  |  |  |  |  | 30 | 10 | 20 | 0 | 0
4 | Cc1sc(-c2ccc(OC(C)C)c(Cl)c2)nc1C1C(=O)[C@@H]2CC[C@@H](C2)C1=O (stereo partly shown) [Compound T79] | 10 | 0 | 0 | 0 | 0 |  |  |  |  | 
5 | Cc1scnc1C1C(=O)[C@@H]2CC[C@@H](C2)C1=O (stereo partly shown) [Compound T52] | 0 | 0 | 0 | 0 | 0 |  |  |  |  | 
6 | Cc1nc(-c2ccc(Cl)c(Cl)c2)sc1C1C(=O)[C@@H]2CC[C@@H](C2)C1=O (stereo partly shown) [Compound T48] | 80 | 80 | 20 | 0 | 0 |  |  |  |  | 
7 | Cc1ncc(-c2ccc(Cl)cc2)cc1C1C(=O)[C@@H]2CC[C@@H](C2)C1=O (stereo partly shown) [Compound T118] | 80 | 60 | 60 | 80 | 0 |  |  |  |  | 
8 | CCc1sc(-c2ccsc2)nc1C1C(=O)[C@@H]2CC[C@@H](C2)C1=O (stereo partly shown) [Compound T97] | 70 | 70 | 0 | 0 | 0 |  |  |  |  | 
9 | Cc1sc(-c2ccc(Br)cc2)nc1C1C(=O)[C@H]2C[C@@H](C1=O)C2(C)C (stereo partly shown) [Compound T121] | 90 | 100 | 70 | 80 | 0 |  |  |  |  | 
10 | Cc1sc(-c2ccsc2)nc1C1C(=O)[C@@H]2CC[C@@H](C2)C1=O (stereo partly shown) [Compound T60] | 60 | 50 | 0 | 0 | 0 |  |  |  |  | 
11 | Cc1oc(-c2ccc(Cl)cc2)nc1C1C(=O)[C@@H]2CC[C@@H](C2)C1=O (stereo partly shown) [Compound T90] | 40 | 30 | 0 | 0 | 0 |  |  |  |  | 
12 | CCc1sc(-c2ccc(OC(C)C)c(Cl)c2)nc1C1C(=O)[C@@H]2CC[C@@H](C2)C1=O (stereo partly shown) [Compound T114] | 90 | 60 | 10 | 0 | 0 |  |  |  |  | 
13 | C=Cc1ccc(-c2nc(C3C(=O)[C@@H]4CC[C@@H](C4)C3=O)c(CC)s2)cc1 (stereo partly shown) [Compound T113] | 90 | 100 | 90 | 100 | 0 |  |  |  |  | 
14 | Cc1sc(-c2ccc(Cl)cc2C(F)(F)F)nc1C1C(=O)[C@@H]2CC[C@@H](C2)C1=O (stereo partly shown) [Compound T6] | 50 | 40 | 0 | 0 | 0 |  |  |  |  | 
15 | CCc1sc(-c2ccc(C(=O)OC)cc2)nc1C1C(=O)[C@@H]2CC[C@@H](C2)C1=O (stereo partly shown) [Compound T107] | 0 | 60 | 0 | 0 | 0 |  |  |  |  | 
16 | Cc1sc(-c2ccc(C(=O)O)cc2)cc1C1C(=O)C2CCC(C2)C1=O (stereo not shown) [Compound T24, 4-[4-(2,4-dioxobicyclo[3.2.1]oct-3-yl)-5-methylthiophen-2-yl]benzoic acid] | 30 | 0 | 0 | 0 | 0 |  |  |  |  | 
17 | Cc1sc(-c2ccccc2Cl)nc1C1C(=O)[C@@H]2CC[C@@H](C2)C1=O (stereo partly shown) [Compound T71] | 50 | 20 | 0 | 0 | 0 |  |  |  |  | 
18 | Cc1nc(-c2ccc(Cl)cc2F)sc1C1C(=O)[C@@H]2CC[C@@H](C2)C1=O (stereo partly shown) [Compound T47] | 90 | 80 | 30 | 0 | 0 |  |  |  |  | 
19 | CCc1sc(-c2cccc(Cl)c2Cl)nc1C1C(=O)[C@@H]2CC[C@@H](C2)C1=O (stereo partly shown) [Compound T98] | 70 | 70 | 20 | 0 | 0 |  |  |  |  | 
20 | Cc1sc(-c2ccc(C=O)cc2)nc1C1=C(OC(=O)C(C)(C)C)[C@H]2CC[C@H](C2)C1=O [Compound P23] | 30 | 20 | 0 | 0 | 0 |  |  |  |  | 
21 | CCc1sc(-c2ccccc2OC)nc1C1C(=O)[C@@H]2CC[C@@H](C2)C1=O (stereo partly shown) [Compound T95] | 80 | 70 | 80 | 30 | 0 |  |  |  |  | 
22 | O=C1C(c2csc(-c3ccc(Cl)cc3)n2)C(=O)[C@H]2CC[C@@H]1C2 (stereo partly shown) [Compound T43, 3-[2-(4-chloro-phenyl)thiazol-4-yl]bicyclo[3.2.1]octane-2,4-dione] | 60 | 20 | 20 | 0 | 0 |  |  |  |  | 
23 | Cc1sc(-c2ccc(Cl)cc2)nc1C1C(=O)[C@H]2C[C@@H](C1=O)C2(C)C (stereo partly shown) [Compound T120] | 90 | 100 | 40 | 60 | 0 |  |  |  |  | 
24 | Cc1nc(-c2ccc(Cl)cc2)sc1C1C(=O)[C@@H]2CC[C@@H](C2)C1=O (stereo partly shown) [Compound T31] | 80 | 60 | 0 | 0 | 0 |  |  |  |  | 
25 | CCOc1ccc(-c2nc(C3C(=O)[C@@H]4CC[C@@H](C4)C3=O)c(CC)s2)cc1F (stereo partly shown) [Compound T112] | 100 | 100 | 70 | 80 | 0 |  |  |  |  | 
26 | Cc1sc(-c2cccc(Cl)c2Cl)nc1C1C(=O)[C@@H]2CC[C@@H](C2)C1=O (stereo partly shown) [Compound T62] | 60 | 0 | 0 | 0 | 0 |  |  |  |  | 
